Laboratory results taken from publication PMC8583996, “Berberine Inhibits MDA-MB-231 Cells as an Agonist of G Protein-Coupled Estrogen Receptor 1” (International Journal of Molecular Sciences, 2021).

Target: T1, human GPER1 (Homo sapiens, UniProt Q99527)
T1 construct: Sf9 baculovirus; Ni-NTA (tag not described) and size exclusion; DDM/CHS; primarily monomer
Assay: intrinsic fluorescence quenching titration
Format: binding

T1 sequence (Q99527 whole entry): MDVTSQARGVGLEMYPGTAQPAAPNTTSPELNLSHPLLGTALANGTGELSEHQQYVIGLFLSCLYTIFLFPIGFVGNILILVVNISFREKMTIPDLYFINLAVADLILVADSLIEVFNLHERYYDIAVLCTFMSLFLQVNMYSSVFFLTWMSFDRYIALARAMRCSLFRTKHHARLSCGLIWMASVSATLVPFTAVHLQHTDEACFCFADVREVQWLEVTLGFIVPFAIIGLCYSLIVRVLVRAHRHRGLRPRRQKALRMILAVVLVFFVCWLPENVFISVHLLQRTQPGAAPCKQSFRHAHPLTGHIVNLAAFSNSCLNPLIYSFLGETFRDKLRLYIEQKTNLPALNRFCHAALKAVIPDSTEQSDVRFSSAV

Kd: 0.89 nM
SMILES: COc1ccc2cc3[n+](cc2c1OC)CCc1cc2c(cc1-3)OCO2 [BBR]
